Experimental data as given in patent publication US8937065B2, “Compositions and methods for modulating a kinase” (Clevexel Pharma, priority 2011, dated 2015).

How the values were obtained:
[1] = test system: NF-kB pathway, THP-1 cells; test: NFkB-NFkB-bla THP-1 screen; settings: Homo sapiens, read-out: IC50 Cell-based selectivity: NF-kB pathway THP-1 cells
Experimental: Mechanism-based inhibition assays using compound 7A (Table 1) were performed using GeneBLAzer® Technology (Invitrogen Corporation), according to manufacturer specifications. Briefly, GeneBLAzer® Technology uses a mammalian-optimized Beta-lactamase reporter gene (bla) combined with a FRET-enabled substrate to provide reliable and sensitive detection in intact cells. Cells were loaded with an engineered fluorescent substrate containing two fluorophores, coumarin and fluorescein. Without bla expression, the substrate molecule remains intact. In this state, excitation of the coumarin results in fluorescence resonance energy transfer to the fluorescein moiety and emission of green light. But when bla is expressed, the substrate is cleaved, the fluorophores are separated, and energy transfer is disrupted. Excitation of the coumarin in the presence of Beta-lactamase activity results in a blue fluorescence signal. […]
General Activator Assay Protocol • 1. […] The assay, plate was read on a fluorescence plate reader (Tecan Safire^2) and the data is analyzed.
NFkB-bla THP-1 cells were thawed and resuspended in Assay Media (RPMI, 10% dialyzed FBS, 0.1 mM NEAA, 1 mM Sodium Pyruvate, 100 U/mL/100 μg/mL Pen/Strep) to a concentration of 625,000 cells/mL. […] The plate was read on a fluorescence plate reader.

[2] = test system: collagen induced arthritis (CIA) in DBA/1 mice; test: Mouse collagen induced arthritis (CIA) slow-progressing disease model; format: in vivo; settings: 100 mg/kg IP QD, 20 days, mild CIA model, n=10, P<0.05
Experimental: Compounds of the invention were evaluated in mouse collagen induced arthritis (CIA) models. There are several known CIA models as outlined in the table below:
The CIA studies utilized a mild (slow-progressing) disease model. The DBA/1 mice developed collagen induced arthritis (CIA) after immunization with Hooke Kit™ chicken collagen/Complete Freund's Adjuvant (CFA) emulsion (EK-0210), followed by a booster dose of Hooke Kit™ chicken collagen/Incomplete Freund's Adjuvant (IFA) emulsion (EK-0211). Each study used 54 female DBA/1 mice (Taconic Farms model DBA1BO, 9 weeks old) later assigned to […] with 10 mice per group. 4 mice were not immunized nor treated, and they were left as naïve controls group for possible histological analysis. The other 50 mice were treated therapeutically.
One study comprises group 1—Vehicle, group 2—CP-690550, 30 mg/kg PO QD, group 3—R-788, 60 mg/kg PO QD and group 4—compound 7, 100 mg/kg, IP QD. The other study comprises group 1—Vehicle, group 2—compound 7, 15 mg/kg PO QD, group 3—compound 7, 30 mg/kg PO QD and group 4—compound 7, 100 mg/kg, IP QD.
Mice were first immunized with collagen/CFA emulsion on Day 0 after being acclimated for at least 7 days. The procedure of immunization was as follows: A mouse was immobilized using a restrainer. The tail was cleaned with 70% ethanol and the area was wiped dry with sterile gauze. […]

[3] = test system: Namalwa cells; test: Proliferation of Namalwa cells (Cell Titer-Glo); settings: Homo sapiens, B-cell, outcome-based, read-out: IC50 Proliferation Namalwa cells (Burkitt's Lymphoma)
[4] = biological target: hERG (Homo sapiens, UniProt Q12809); test: hERG IC50
hERG, sequence (Q12809 whole entry): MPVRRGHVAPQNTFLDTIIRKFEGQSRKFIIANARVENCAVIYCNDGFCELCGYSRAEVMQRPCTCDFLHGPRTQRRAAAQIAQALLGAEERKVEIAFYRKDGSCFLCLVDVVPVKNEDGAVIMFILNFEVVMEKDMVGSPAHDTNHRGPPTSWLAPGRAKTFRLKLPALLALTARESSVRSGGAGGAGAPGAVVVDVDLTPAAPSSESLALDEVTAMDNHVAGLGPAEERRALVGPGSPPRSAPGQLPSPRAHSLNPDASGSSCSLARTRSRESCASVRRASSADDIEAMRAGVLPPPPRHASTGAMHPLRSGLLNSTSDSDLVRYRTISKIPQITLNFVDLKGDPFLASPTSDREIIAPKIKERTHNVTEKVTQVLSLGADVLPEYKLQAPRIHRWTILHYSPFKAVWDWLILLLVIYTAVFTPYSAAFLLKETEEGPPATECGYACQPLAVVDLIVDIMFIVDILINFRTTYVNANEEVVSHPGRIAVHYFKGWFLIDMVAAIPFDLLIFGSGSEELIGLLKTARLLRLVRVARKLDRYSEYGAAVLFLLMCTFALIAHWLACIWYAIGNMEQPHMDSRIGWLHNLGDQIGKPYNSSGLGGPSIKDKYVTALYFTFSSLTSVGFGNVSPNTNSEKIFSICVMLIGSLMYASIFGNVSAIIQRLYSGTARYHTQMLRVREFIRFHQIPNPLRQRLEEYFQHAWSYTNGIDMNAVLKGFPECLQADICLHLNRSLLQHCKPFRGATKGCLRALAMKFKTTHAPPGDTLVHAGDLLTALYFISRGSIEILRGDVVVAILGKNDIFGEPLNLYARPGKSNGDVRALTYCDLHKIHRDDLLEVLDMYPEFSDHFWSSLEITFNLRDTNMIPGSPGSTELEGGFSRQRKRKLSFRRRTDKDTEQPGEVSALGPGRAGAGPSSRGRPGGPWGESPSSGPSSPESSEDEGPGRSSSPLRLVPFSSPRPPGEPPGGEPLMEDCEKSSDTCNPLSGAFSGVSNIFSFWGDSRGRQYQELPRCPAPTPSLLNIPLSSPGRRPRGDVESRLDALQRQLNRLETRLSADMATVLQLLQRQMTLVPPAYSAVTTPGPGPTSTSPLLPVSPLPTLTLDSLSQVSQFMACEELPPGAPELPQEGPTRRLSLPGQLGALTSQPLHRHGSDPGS

## O=C(CN1CCOCC1)Nc1cccc(-c2nc(-c3c[nH]c(C(=O)N4CCCC4)c3)cs2)c1 [7A, 2-morpholino-N-(3-(4-(5-(pyrrolidine-1-carbonyl)-1H-pyrrol-3-yl)thiazol-2-yl)phenyl)acetamide]
[1]
  IC50: 40.8 µM
[2]
  CIA score on the last day vs. combined vehicle: reduction in CIA score
[3]
  IC50: 28 µM
[4]
  IC50: > 10 µM
